Results from patent US11078202B2, “β-lactamase inhibitor and use thereof” (priority 2018, dated 2021).
Where a name gives a salt, the structure may show the parent alone. Read-outs that look alike come from different tables or passages of the source.

Key:
Format in all cases: cell-based
[1] = test system: Klebsiella pneumoniae XNWB 0002 (KPC-2, SHV-5); assay: microbe, parasite or virus in culture
Experimental: (§1) The bacterial strains used for the minimum inhibitory concentration (MIC) test were frozen in a −80° C. ULT freezer and thawed 2 days before use. A small amount of frozen bacterial strains were scraped using a sterile inoculating loop, streaked onto a TSA solid culture dish for inoculation, and then cultured for 20-24 h at 35±2° C. in a normal atmospheric environment.
(§2) 5-10 colonies with similar morphology were picked from the culture dish using a sterile inoculating loop and then re-streaked onto a suitable solid culture dish. Then the dish was placed into a normal incubator for culture for 20-24 h at 35±2° C.
(§3) 5-10 single bacterial colonies were picked from the solid culture dish, resuspended in 500 μL of 0.9% NaCl, and adjusted to an OD600 of 0.1-0.15 with a spectrophotometer.
(§4) The bacteria were then diluted 300-fold with 1.1×CAMHB.
(§5) After addition, the 6 assay plates were covered by sterile covers. The mixtures in the assay plates were centrifuged by a centrifuge at 1000 rpm for 30 s, and mixed uniformly by oscillating with a microplate oscillator at 800 rpm for 1 min, and then cultured in a common incubator for 16-20 h at 35±2° C.
(§6) The minimum inhibitory concentration of each compound was recorded by reference to guidelines from the Clinical and Laboratory Standards Institute.
(§7) The minimum inhibitory concentrations of the compounds of the present invention and antibiotics (imipenem, ceftazidime, and ampicillin) against 11 strains of bacteria were tested in this study by reference to the medium microdilution method as indicated by the Clinical and Laboratory Standards Institute. The effect of the test compounds in combination with imipenem, ceftazidime, and ampicillin was also tested. Compounds were diluted two-fold in 96-well plates from the highest detection concentration of 64 μg/mL. The test compounds were tested in combination with a fixed concentration of imipenem (4 μg/mL), ceftazidime (8 μg/mL), and ampicillin (8 μg/mL). The bacterial inocula in the assay plates were resuscitated from TSA and diluted in CAMHB, while growth controls (GC wells) and sterile controls (SC wells) were set up in the assay plates.

[2] = test system: Klebsiella pneumoniae XNWB 0004 (KPC-2, SHV-12); assay: microbe, parasite or virus in culture
Experimental: as §1, §2, §3, §4, §5, §6, §7

[3] = test system: Acinetobacter baumannii XNWB 0007 (AmpC); assay: MIC of antibiotics alone, broth microdilution; conditions: antibiotic alone, A. baumannii XNWB 0007, β-lactamase AmpC
Experimental: as §1, §2, §3, §4, §5, §6, §7

[4] = test system: Enterobacter aerogenes XNWB 0011 (TEM-10); assay: MIC of antibiotics alone, broth microdilution; conditions: Klebsiella aerogenes; antibiotic alone; E. aerogenes XNWB 0011, β-lactamase TEM-10
Experimental: as §1, §2, §3, §4, §5, §6, §7

[5] = test system: Escherichia coli XNWB 0009 (SHV-5A); assay: MIC of antibiotics alone, broth microdilution
Experimental: as §1, §2, §3, §4, §5, §6, §7

[6] = test system: Escherichia coli XNWB 0010 (SHV-2); assay: MIC of antibiotics alone, broth microdilution; conditions: antibiotic alone, E. coli XNWB 0010, β-lactamase SHV-2
Experimental: as §1, §2, §3, §4, §5, §6, §7

[7] = test system: Klebsiella pneumoniae XNWB 0001 (KPC-1/2); assay: MIC of antibiotics alone, broth microdilution; conditions: antibiotic alone, K. pneumoniae XNWB 0001, β-lactamase KPC-1/2
Experimental: as §1, §2, §3, §4, §5, §6, §7

[8] = test system: Klebsiella pneumoniae XNWB 0003 (KPC-11, SHV-12); assay: MIC of antibiotics alone, broth microdilution
Experimental: as §1, §2, §3, §4, §5, §6, §7

[9] = test system: Klebsiella pneumoniae XNWB 0005 (KPC-3); assay: MIC of antibiotics alone, broth microdilution
Experimental: as §1, §2, §3, §4, §5, §6, §7

[10] = test system: Klebsiella pneumoniae XNWB 0006 (CTX-M-15, SHV); assay: MIC of antibiotics alone, broth microdilution
Experimental: as §1, §2, §3, §4, §5, §6, §7

[11] = test system: Pseudomonas aeruginosa XNWB 0008 (AmpC); assay: MIC of antibiotics alone, broth microdilution
Experimental: as §1, §2, §3, §4, §5, §6, §7

[12] = test system: Acinetobacter baumannii XNWB 0007; assay: MIC assay of test compounds combined with ceftazidime (8 μg/mL); conditions: ceftazidime 8 μg/mL fixed
Outline: (§8)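 Inoculum: TSA-grown colonies (35±2 °C, 20-24 h, subcultured once), NaCl 0.9% suspension at OD600 0.1-0.15, then 300× dilution into 1.1×CAMHB. Serial compound dilutions with the partner antibiotic at a fixed level; ambient-air incubation 16-20 h, 35±2 °C; CLSI-based MIC readout.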

[13] = test system: Klebsiella pneumoniae XNWB 0001; assay: as above; conditions: ceftazidime 8 μg/mL fixed
Outline: as §8

[14] = test system: Klebsiella pneumoniae XNWB 0002; assay: as above; conditions: ceftazidime 8 μg/mL fixed
Outline: as §8

[15] = test system: Klebsiella pneumoniae XNWB 0003; assay: as above; conditions: ceftazidime 8 μg/mL fixed
Outline: as §8

[16] = test system: Klebsiella pneumoniae XNWB 0004; assay: as above; conditions: ceftazidime 8 μg/mL fixed
Outline: as §8

[17] = test system: Klebsiella pneumoniae XNWB 0005; assay: as above; conditions: ceftazidime 8 μg/mL fixed
Outline: as §8

[18] = test system: Klebsiella pneumoniae XNWB 0006; assay: as above; conditions: ceftazidime 8 μg/mL fixed
Outline: as §8

[19] = test system: Pseudomonas aeruginosa XNWB 0008; assay: as above; conditions: ceftazidime 8 μg/mL fixed
Outline: as §8

[20] = test system: Acinetobacter baumannii XNWB 0007; assay: MIC assay of test compounds combined with imipenem (4 μg/mL); conditions: imipenem 4 μg/mL fixed
Outline: as §8

[21] = test system: Klebsiella pneumoniae XNWB 0001; assay: as above; conditions: imipenem 4 μg/mL fixed
Outline: as §8

[22] = test system: Klebsiella pneumoniae XNWB 0002; assay: as above; conditions: imipenem 4 μg/mL fixed
Outline: as §8

[23] = test system: Klebsiella pneumoniae XNWB 0003; assay: as above; conditions: imipenem 4 μg/mL fixed
Outline: as §8

[24] = test system: Klebsiella pneumoniae XNWB 0004; assay: as above; conditions: imipenem 4 μg/mL fixed
Outline: as §8

[25] = test system: Klebsiella pneumoniae XNWB 0005; assay: as above; conditions: imipenem 4 μg/mL fixed
Outline: as §8

[26] = test system: Klebsiella pneumoniae XNWB 0006; assay: as above; conditions: imipenem 4 μg/mL fixed
Outline: as §8

[27] = test system: Pseudomonas aeruginosa XNWB 0008; assay: as above; conditions: imipenem 4 μg/mL fixed
Outline: as §8

[28] = test system: Enterobacter aerogenes XNWB 0011; assay: MIC assay of test compounds combined with ampicillin (8 μg/mL); conditions: ampicillin 8 μg/mL fixed
[29] = test system: Escherichia coli XNWB 0009; assay: as above; conditions: ampicillin 8 μg/mL fixed
[30] = test system: Escherichia coli XNWB 0010; assay: as above; conditions: ampicillin 8 μg/mL fixed
[31] = antibiotic alone, K. pneumoniae XNWB 0003, β-lactamase KPC-11, SHV-12, read-out: MIC
[32] = antibiotic alone, K. pneumoniae XNWB 0005, β-lactamase KPC-3, read-out: MIC
[33] = antibiotic alone, P. aeruginosa XNWB 0008, β-lactamase AmpC, read-out: MIC

| SMILES | MIC [1] | MIC [2] | MIC [3] | MIC [4] | MIC [5] | MIC [6] | MIC [7] | MIC [8, 31] | MIC [9, 32] | MIC [11, 33] | MIC [10] | also measured |
| --- | --- | --- | --- | --- | --- | --- | --- | --- | --- | --- | --- | --- |
| CC1(C)S[C@@H]2[C@H](NC(=O)[C@H](N)c3ccccc3)C(=O)N2[C@H]1C(=O)O [Ampicillin] | > 32 µg/mL | > 32 µg/mL | > 32 µg/mL | > 32 µg/mL | > 32 µg/mL | > 32 µg/mL | > 32 µg/mL | > 32 µg/mL | > 32 µg/mL | > 32 µg/mL | – | MIC ([10]; antibiotic alone, K. pneumoniae XNWB 0006, β-lactamase CTX-M-15, SHV, read-out: MIC): > 32 µg/mL |
| CC(C)(O/N=C(\C(=O)N[C@@H]1C(=O)N2C(C(=O)[O-])=C(C[n+]3ccccc3)CS[C@H]12)c1csc(N)n1)C(=O)O [Ceftazidime] | 128 µg/mL | > 128 µg/mL | 64 µg/mL | 0.5 to 1 µg/mL | 16 to 32 µg/mL | 4 to 16 µg/mL | 64 to 128 µg/mL | – | – | – | > 128 µg/mL | MIC [8]: > 128 µg/mL; MIC [9]: > 128 µg/mL; MIC [11]: 128 µg/mL |
| C[C@@H](O)[C@H]1C(=O)N2C(C(=O)O)=C(SCCN=CN)C[C@H]12 [Imipenem] | 32 to 64 µg/mL | 64 µg/mL | 32 to 64 µg/mL | 0.5 to 1 µg/mL | 0.125 to 0.5 µg/mL | ≤ 0.125 µg/mL | 64 to 128 µg/mL | 8 to 16 µg/mL | 32 to 64 µg/mL | 16 to 32 µg/mL | 0.125 to 0.5 µg/mL | – |
| NCCc1cc([C@@H]2CC3(CC3)[C@@H]3CN2C(=O)N3OS(=O)(=O)O)no1 [Example 41, (1R,4S)-4-(5-(2-aminoethyl)isoxazol-3-yl)-6-oxo-5,7-diazaspiro[bicyclo[3.2.1]octane-2,1′-cyclopropan]-7-yl sulfate] | – | – | – | – | – | – | – | – | – | – | – | The minimum concentration of test compounds combined with ceftazidime (8 μg/mL) for bacteriostasis [12]: C (C: 16-128 μg/mL); The minimum concentration of test compounds combined with ceftazidime (8 μg/mL) for bacteriostasis [13]: A (A: <8 μg/mL); The minimum concentration of test compounds combined with ceftazidime (8 μg/mL) for bacteriostasis [14]: A (A: <8 μg/mL); The minimum concentration of test compounds combined with ceftazidime (8 μg/mL) for bacteriostasis [15]: A (A: <8 μg/mL); The minimum concentration of test compounds combined with ceftazidime (8 μg/mL) for bacteriostasis [16]: B (B: 8-16 μg/mL); The minimum concentration of test compounds combined with ceftazidime (8 μg/mL) for bacteriostasis [17]: A (A: <8 μg/mL); The minimum concentration of test compounds combined with ceftazidime (8 μg/mL) for bacteriostasis [18]: A (A: <8 μg/mL); The minimum concentration of test compounds combined with ceftazidime (8 μg/mL) for bacteriostasis [19]: C (C: 16-128 μg/mL); The minimum concentration of test compounds combined with imipenem (4 μg/mL) for bacteriostasis [20]: C (C: 16-128 μg/mL); The minimum concentration of test compounds combined with imipenem (4 μg/mL) for bacteriostasis [21]: A (A: <8 μg/mL); The minimum concentration of test compounds combined with imipenem (4 μg/mL) for bacteriostasis [22]: A (A: <8 μg/mL); The minimum concentration of test compounds combined with imipenem (4 μg/mL) for bacteriostasis [23]: A (A: <8 μg/mL); The minimum concentration of test compounds combined with imipenem (4 μg/mL) for bacteriostasis [24]: A (A: <8 μg/mL); The minimum concentration of test compounds combined with imipenem (4 μg/mL) for bacteriostasis [25]: A (A: <8 μg/mL); The minimum concentration of test compounds combined with imipenem (4 μg/mL) for bacteriostasis [26]: A (A: <8 μg/mL); The minimum concentration of test compounds combined with imipenem (4 μg/mL) for bacteriostasis [27]: A (A: <8 μg/mL); The minimum concentration of test compounds combined with ampicillin (8 μg/mL) for bacteriostasis [28]: B (B: 8-16 μg/mL); The minimum concentration of test compounds combined with ampicillin (8 μg/mL) for bacteriostasis [29]: A (A: <8 μg/mL); The minimum concentration of test compounds combined with ampicillin (8 μg/mL) for bacteriostasis [30]: A (A: <8 μg/mL) |
